What is called AUC(0-t) is the area under the concentration-time curve up to a stated or last time point. Usually AUC stands for the area under the concentration-time curve, a measure of exposure. One may read the Cmax as the maximum level reached in the sampled fluid or tissue. In general, bioavailability refers to dose-corrected exposure relative to a reference, in per cent.

“Also recorded” adds a separate entry of the source. Where only a bound is given, the exact number is not on record here.

Series [1] deals with rat morphine withdrawal model. Nature of the series: Rat morphine withdrawal model (naloxone-precipitated). It counts as in vivo. Conditions: rats, 25 mg/kg PO QD for 7 days. The method, then:
The ability of (S)-AV1013 to reduce/ameliorate withdrawal behavior relative to a control was evaluated in rats. The study was conducted in accordance with the method disclosed by Hutchinson et. al., Brain Behavior and Immunity, V. 23, (2009), p 240-250.
Rats were administered morphine in escalating doses over a five day period to induce dependence (15-22.5 mg/kg/day). (S)-AV1013 (25 mg/kg PO QD) or vehicle (saline) administration was initiated two days prior and continued concomitant with the morphine dosing regimen for a total of 7-days. On day seven all animals were administered naloxone SC to precipitate withdrawal symptoms. Specific withdrawal behaviors were scored over 6×, 10 minute intervals. A total of 15 rats per group were evaluated.

The target of series [2] is T1, rhMIF (recombinant human Macrophage migration Inhibitory Factor) (Homo sapiens, UniProt P14174).
T1 sequence (P14174 2-115 limits assumed): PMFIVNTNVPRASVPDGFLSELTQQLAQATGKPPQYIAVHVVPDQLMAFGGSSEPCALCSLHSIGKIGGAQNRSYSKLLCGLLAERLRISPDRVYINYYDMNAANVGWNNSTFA
Nature of the series: MIF-induced migration of human peripheral blood monocytes (PBMCs). The format is cell-based. Conditions: rhMIF 90 nM, dilution series of inhibitor. As for the experimental part: The chemo attractant activities of rhMIF (recombinant human Macrophage migration Inhibitory Factor) and the effect of inhibitors were measured using human peripheral blood monocytes (PBMCs) isolated from whole blood by centrifugation on Histopaque-1077 (Sigma). The cells were washed in RPMI-1640, diluted to 1×10^6 cells/ml and analyzed immediately. These assays were carried out in 24 well tissue culture plates utilizing 8.0 μm cell culture inserts (Falcon). Recombinant hMIF (90 nM), diluted in RPMI was placed in the cells of a 24 well plate with or without inhibitor (10-fold molar excess or dilution series) and allowed to incubate for 30 min at 37° C., 5% CO2. Washed human monocytes were added to the upper chamber of 8.0 μm cell culture inserts and allowed to incubate for 3 hrs at 37° C., 5% CO2. Cells that migrate through the membrane were fixed in methanol and stained with Geimsa, prior to cell counting using light microscopy.
Results are expressed as the mean number of cells counted per high power field for each of two replicates to obtain statistically significant data. (Legend: −Star=no human MIF, Skull=no human MIF+10 uM (S)-AV1013. See FIGS. 5A and 5B.

Series [3] can be described thus: Rat pharmacokinetics of the enantiomers after oral dosing of racemic AV1013. Conditions: for Cmax: po. The format is in vivo. As for the experimental part: Three male Sprague-Dawley rats were dosed orally via gavage with 25 mg/kg racemic AV1013 dissolved in water. Serial blood samples were collected from the tail vein at 5, 15, and 30 min, 1, 3, and 6 hours post dosing. Samples were processed for plasma via centrifugation and plasma samples were stored frozen prior to analysis.
(§1) A sensitive and specific chiral HPLC/MS/MS bioanalytical method for the detection of (S)-AV1013 and (R)-AV1013 enantiomers in rat and dog plasma was utilized. AV1013 enantiomers and the internal standard (AV1040, an analog of AV1013) were isolated from plasma by protein precipitation induced by acetonitrile. After centrifugation to sediment the proteins, the supernatant fractions were analyzed by high performance liquid chromatography (LC) in conjunction with a triple quadrupole mass spectrometer that used electrospray ionization in tandem with positive ionization (MS/MS) according to the conditions below. The LLOQ (lower level of quantitation) was typically <3 ng/mL.
(§2) Analysis of pharmacokinetic parameters was performed for each enantiomer via LC/MS bioanalytics and WinNonlin™ analysis (version 4.0.1; Pharsight Corp., Mountain View, Calif.), commercial software designed for the analysis of PK data. The PK modeling was based on a non-compartmental model with gradual input into the central compartment. Computation of the area under the curve (AUC) was based on the sum of trapezoidal areas for the plotted plasma concentration-time data. AUC and associated parameters were estimated by log-linear regression analysis of the terminal phase.

The nature of series [4]: Bioavailability and duration of action of (S)-AV1013.
A short description of series [5]: Dog pharmacokinetics of the enantiomers after oral dosing of racemic AV1013. It counts as in vivo. Conditions: for Cmax: po. As for the experimental part: Three male beagle dogs were dosed orally with 10 mg/kg racemic AV1013 via gavage. AV1013 was dissolved in water at 5 mg/ml and dosed via gavage at a volume of 2 ml/kg. Blood samples were collected via the jugular vein at 5, 15 and 30 minutes, 1, 2, 4, 6, 8, and 24 hours post dosing.
as §1, §2

The test system of series [6] is rat chronic constriction injury model of neuropathic pain. The series is described as follows: Rat chronic constriction injury model of neuropathic pain (von Frey mechanical allodynia). The format is in vivo. Conditions: rat CCI, oral 25 mg/kg, 2 hours post-dosing, 25 mg/kg. The text has this: The (S)- and the (R)-enantiomer of AV1013 were each evaluated in a rat chronic constriction injury model of neuropathic pain (see, Ledeboer et. al., Neuron Glia Biology, (2006), p 279-291), to determine whether differences in their activity could be observed.
To induce allodynia, male Sprague-Dawley rats underwent chronic constriction injury (CCI) to the sciatic nerve as described by Bennett and Xie, Pain 1988; 33(1):87-107. The plantar surface of the hind paws was stimulated with von Frey filaments (Stoelting) to induce a withdrawal response by blinded personnel. The bending force of fiber required to induce a 50% withdrawal response was calculated following CCI surgery (pre-dosing baseline).
Allodynic rats (N=5-6), received an oral administration of (S)-AV1013 (25 mg/kg), AV1013-R (100 mg/kg) or vehicle. Two hours post-dosing, 50% paw withdrawal threshold was determined by blinded testers using von Frey filaments. The 50% withdrawal threshold prior to CCI surgery, pre-dosing (10 days post-surgery), and 2 hours post-dosing are plotted in FIG. 3.

A short description of series [7]: Water solubility. The format is physicochemical.

On to `CC(C)c1nn2ccccc2c1C(=O)[C@H](C)N` [(S)-AV1013, (S)-2-amino-1-(2-isopropylpyrazolo[1,5-a]pyridin-3-yl)propan-1-one], for which the “withdrawal behaviors relative to vehicle” value in series [1] is given as “reduced withdrawal behaviors; also recorded: reduced withdrawal symptoms relative to those receiving vehicle”. Besides, in series [2], the “antagonism of MIF-induced cell migration” value is recorded as “antagonize MIF-induced macrophage migration in a dose-dependent fashion; also recorded: antagonize MIF-induced mononuclear cell migration in a similar dose dependent fashion”. For the same compound, the AUC(0-t) in series [3] (male, Sprague-Dawley, oral 25 mg/kg racemic AV1013, plasma) is 5950 ng·h/mL; in series [5] (male, beagle dog, oral 10 mg/kg racemic AV1013, plasma) it was 24200 ng·h/mL. For the same compound, the exposure (AUC) in series [3] (male, Sprague-Dawley, plasma, 25 mg/kg, oral dosing of racemate, rounded values, read-out: calculated area under the curves (AUC)) is 6000 ng·h/mL; in series [5] (male, beagle, plasma, 10 mg/kg, dog, oral dosing of racemate, rounded values, read-out: calculated area under the curves (AUC)) it was 24200 ng·h/mL. Moreover, the Cmax turned out to be 1260 ng/mL in series [3] (male, Sprague-Dawley, plasma, 25 mg/kg, oral 25 mg/kg racemic AV1013, plasma, read-out: Cmax); 1300 ng/mL in series [3] (male, Sprague-Dawley, plasma, 25 mg/kg, oral dosing of racemate, rounded values, read-out: mean peak plasma levels (Cmax)); 2630 ng/mL in series [5] (male, beagle, dog, plasma, 10 mg/kg, beagle dog, oral 10 mg/kg racemic AV1013, plasma, read-out: Cmax); 2600 ng/mL in series [5] (male, beagle, dog, plasma, 10 mg/kg, dog, oral dosing of racemate, rounded values, read-out: mean peak plasma levels (Cmax)). In addition, the “AUC of (S) relative to (R) enantiomer” value in series [3] (oral dosing of racemate) is “around 17 fold”; in series [5] (dog, oral dosing of racemate) it was greater than 3 fold. Moreover, the “Cmax of (S) relative to (R) enantiomer” value in series [3] (oral dosing of racemate) was “at least 3 fold”; in series [5] (dog, oral dosing of racemate), “at least 2 fold”; in series [5] (dog, oral dosing of racemate, listed as (S)-enantiomer), greater than 2 fold. In addition, in series [4], the “in vivo duration of action” value was 2 to 24 h. In series [4] (in vivo, share of the (S)-enantiomer dosed that is bioavailable), the bioavailability is greater than 70%. Also, the “attenuation of mechanical allodynia (50% paw withdrawal threshold)” value is “substantially more potent in treating neuropathic pain than the corresponding (R) enantiomer” in series [6] and “more potent in vivo than is the (R)-enantiomer” in series [6] (listed as (S)-enantiomer). Moreover, the water solubility entry in series [7] was “good water solubility”.

Source of the values: patent US8119657B2, “Enantiomeric compositions of 2-amino-1-(2-isopropylpyrazolo[1,5-α]pyridin-3-yl)propan-1-one and related methods” (MediciNova, Inc., priority 2009, dated 2012).
